Experimental data as given in US6495514B1, “Method for reducing inflammation and inducing an analgesic effect and compounds thereof” (Mercer University, priority 1998, dated 2002).
Marks after values point to notes of the source that are not given here.

Assays:
[1] = target: T1, peptidylglycine α-monooxygenase (PAM) (Rattus norvegicus, UniProt P14925); experiment: Serum PAM activity after PBA dosing in rats; format: in vivo; details: for inhibition at 500 mg/kg: rat, sc
T1 construct: 50 μl of serum sample (enzyme source) was added to 200 μl of the assay mixture; from tissue; host or cells: rat serum (tail vein blood)
T1 sequence (P14925 36-976): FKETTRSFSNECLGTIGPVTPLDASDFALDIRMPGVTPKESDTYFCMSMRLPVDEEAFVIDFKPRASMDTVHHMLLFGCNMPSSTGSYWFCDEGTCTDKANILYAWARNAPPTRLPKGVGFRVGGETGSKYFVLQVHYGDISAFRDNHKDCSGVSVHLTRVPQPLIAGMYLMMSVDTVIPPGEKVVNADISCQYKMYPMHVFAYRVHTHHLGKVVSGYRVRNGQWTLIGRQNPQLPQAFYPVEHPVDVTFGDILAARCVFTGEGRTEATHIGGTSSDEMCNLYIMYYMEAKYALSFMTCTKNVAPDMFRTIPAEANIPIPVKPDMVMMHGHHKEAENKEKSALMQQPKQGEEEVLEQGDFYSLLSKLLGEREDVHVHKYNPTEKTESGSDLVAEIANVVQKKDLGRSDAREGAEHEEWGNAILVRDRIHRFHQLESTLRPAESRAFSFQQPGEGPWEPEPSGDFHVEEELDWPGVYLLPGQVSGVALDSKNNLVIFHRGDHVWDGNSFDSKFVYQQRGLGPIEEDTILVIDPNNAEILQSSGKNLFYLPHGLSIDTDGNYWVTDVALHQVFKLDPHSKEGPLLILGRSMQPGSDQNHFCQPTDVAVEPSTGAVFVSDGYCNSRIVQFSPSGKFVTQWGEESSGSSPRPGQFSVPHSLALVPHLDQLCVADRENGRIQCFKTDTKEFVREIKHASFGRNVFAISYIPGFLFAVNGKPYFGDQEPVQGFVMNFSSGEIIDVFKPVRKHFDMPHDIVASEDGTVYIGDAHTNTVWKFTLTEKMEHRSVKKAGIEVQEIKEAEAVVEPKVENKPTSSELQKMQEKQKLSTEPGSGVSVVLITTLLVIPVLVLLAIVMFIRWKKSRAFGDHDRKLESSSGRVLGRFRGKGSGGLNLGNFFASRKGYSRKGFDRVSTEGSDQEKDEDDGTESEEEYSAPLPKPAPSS
Description: (§1) Male rats were fasted overnight and anesthetized with ether to obtain blood samples for measuring PAM and PGL activity in serum. Blood (0.5 ml) was collected from the tail vein at different times and spun at 14,000×g for 5 minutes. Serum was collected and stored at −70° C. until assayed. PAM activity was determined based on the procedure disclosed in Katopodis et al. (Biochemistry 30, 6189-6194, 1991). Briefly, 50 μl of serum sample (enzyme source) was added to 200 μl of the assay mixture which contained tripeptide TNP-D-Tyr-Val-Gly as the enzyme substrate (40 μM), copper sulfate (15 μM), L-ascorbate (4 mM) and catalase (1 mg/ml) in MES buffer (100 mM, pH 6.5). After a 30 minute incubation period at 37° C., an aliquot (90 μl) was quenched with 10 μl of HClO4 (3M) and centrifuged at 14,000×g for 5 minutes. A 20 μl aliquot was removed and used to assay for product using reverse phase HPLC at 344 nm on a C8 column with a mobile phase of 56% water/0.1% trifluoroacetic acid/44% acetonitrile at a flow rate of 1.5 mL/min. In this manner, both TNP-D-Tyr-Val-NH2 as well as the TNP-D-Tyr-Val-α-hydroxyGly were quantitated simultaneously. PGL activity was assayed by measuring the conversion of α-hydroxyhippuric acid to benzamide as disclosed in Katopodis and May (Biochemistry 29, 4541-4548, 1990). Briefly, 50 μl of the serum sample was added to 200 μl of a 100 mM MES buffer solution (pH 6.5) containing 2 mM of the enzyme substrate. After incubation for 30 minutes at 37° C., an aliquot of the assay mixture was quenched with 3 M HClO4, centrifuged at 14,000×g and 20 μl used to analyze for benzamide product by HPLC using a C8 reverse phase column. Product detection was performed at 225 nm using a mobile phase of 80% water/0.1% trifluoroacetic acid/20% acetonitrile at a flow rate of 1.5 mL/min. Enzyme activity was expressed as milliunits per milliliter which is the amount of enzyme required to produce one nanomole of product.

[2] = test system: acetylcholine-induced writhing; experiment: Acetylcholine-induced writhing; format: in vivo, mice
Description: (§2) The effects of PBA on the perception of pain was evaluated using several different animal models. The spinally-mediated tail-flick response to heat in fasted rats (250-290 g) was used by measuring the withdrawal latency following immersion of the rodent's tail (2″) into hot water (50° C.). PBA at several different dose levels was administered subcutaneously and the time to tail withdrawal was measured at 0, 15, 30 and 60 minutes post-drug administration. The analgesic effects of PBA were also evaluated in fasted mice following the injection of either phenyl-p-quinone or acetylcholine. Male, ND4 Swiss mice (15-20 g) were dosed subcutaneously with PBA or saline followed immediately by the injection of phenyl-p-quinone (2 mg/kg i.p.). After 5 minutes, the number of writhes (abdominal constrictions along with contortion of the trunk and extension of the hindlimbs) was counted over the next 10 minutes. When acetylcholine (6 mg/kg i.p.) was used as the noxious agent, PBA was administered subcutaneously 15 minutes before the administration of the algesic agent. The number of writhes produced was counted over the last 5 minutes following the algesic agent.

[3] = target: T2, peptidylamidoglycolate lyase (PGL) (Rattus norvegicus, UniProt P14925); experiment: Serum PGL activity after PBA dosing in rats; format: in vivo; details: 500 mg/kg s.c., 24 hour observation period
T2 construct: from tissue; host or cells: rat serum (tail vein blood)
T2 sequence (P14925 36-976): T1 sequence (P14925 36-976)
Description: as §1, with “PGL activity was assayed by measuring the conversion of α-hydroxyhippuric acid to benzamide as disclosed in Katopodis and May (Biochemistry 29, 4541-4548, 1990). Briefly, 50 μl of the serum sample was added to 200 μl of a 100 mM MES buffer solution (pH 6.5) containing 2 mM of the enzyme substrate. After incubation for 30 minutes at 37° C., an aliquot of the assay mixture was quenched with 3 M HClO4, centrifuged at 14,000×g and 20 μl used to analyze for benzamide product by HPLC using a C8 reverse phase column. Product detection was performed at 225 nm using a mobile phase of 80% water/0.1% trifluoroacetic acid/20% acetonitrile at a flow rate of 1.5 mL/min.” left out

[4] = test system: tail withdrawal latency; experiment: Tail-flick response to heat (50° C. water); format: in vivo, rat; details: s.c., doses up to 750 mg/kg; 15, 30 and 60 minutes post-drug
Description: as §2

[5] = test system: phenyl-p-quinone-induced writhing; experiment: Phenyl-p-quinone-induced writhing; format: in vivo, mice
Description: as §2

[6] = test system: bradykinin edema; experiment: Bradykinin-induced hind paw edema; format: in vivo, rat
Description: (§3) Carrageenan, bradykinin and serotonin edemas were induced in anesthetized, male Sprague-Dawley rats (150-175 g) by injecting 0.5 mg (0.05 ml) of carrageenan, 50 μg (0.1 ml) of bradykinin and 20 μg (0.1 ml) of serotonin, respectively, into the subplantar region of the left hind paws the contralateral hind paws received saline only. Hind paw volumes (edema) were measured plethysmographically by displacement of mercury at 0, 1, 2, 3, 4 and 6 hours post administration of carrageenan, 30 minutes after bradykinin and 1 hour after serotonin. Swelling was determined by subtracting the volume (ml) of the right hind . paw from that of the left. PBA was administered subcutaneously 30 minutes before the administration of carrageenan and serotonin and one hour before bradykinin. In those experiments in which PBA was delivered continuously to rats over a 7 day period prior to the administration of carrageenan, ALZET osmotic pumps (Palo Alto, Calif.) were filled with drug and implanted subcutaneously between the scapulae into anesthetized rats.

[7] = test system: serotonin edema; experiment: Serotonin-induced hind paw edema; format: in vivo, rat
Description: as §3

[8] = test system: carrageenan edema; experiment: Carrageenan-induced hind paw edema; format: in vivo, rat; details: for inhibition of hind paw edema: 2 hours post-administration
Description: as §3, with “PBA was administered subcutaneously 30 minutes before the administration of carrageenan and serotonin and one hour before bradykinin.” left out

[9] = test system: substance P (SP); experiment: SP levels in hind paw tissue (RIA); format: in vivo, rat; details: 75 mg/kg/hr for 7 days, prior to carrageenan (time 0)
Description: The effects of PBA on levels of SP were evaluated using a modification of a method previously disclosed in Ahmed et al. (Peptides 15, 317-322, 1994). Briefly, at different times following the administration of carrageenan, hind paw ankle joints were removed, immediately frozen on dry ice and stored at −80° C. until assayed for SP. After the frozen sample was weighed, it was boiled for 7 minutes as a 10% w/v solution of 2M acetic acid in 4% EDTA, pH 3.5, cut into small pieces and boiled for an additional 7 minutes. Samples were then homogenized for 60 seconds in a Brinkmann Polytron (Westbury, N.Y.), sonicated for 30 seconds and centrifuged at 3000×g for 20 minutes. Supernatants were lyophilized and then diluted in radioimmunoassay (RIA) buffer prior to analysis. SP levels were determined from these samples by using a commercially available RIA kit (INCSTAR, Stillwater, Minn.). Initial experiments conducted to insure the specificity of the substance P antibody for SP found the cross-reactivity for the glycine-extended precursor to be 1.7% at concentrations up to 100 nanograms/ml.

[10] = dose that produced significant inhibition of carrageenan edema

## O=C(O)C/C=C/c1ccccc1 [PBA, trans-4-phenyl-3-butenoic acid]
[1]; 75 mg/kg/hr for 7 days, prior to carrageenan (time 0)
  serum PAM activity compared to controls: significantly reduced
[1]; 500 mg/kg s.c. single dose, after 24 hours
  serum PAM activity vs control: not significantly different from control values
[1]; 50, 150 and 500 mg/kg, normal rats
  dose dependence of inhibition of serum PAM activity: dose-related
[1]; continuous release 50 to 100 mg/kg/hr s.c. via osmotic pumps, throughout 7 day dosing period
  sustained reduction in serum PAM activity: > 75%
[1]; 500 mg/kg s.c. single dose, by 6 hours
  inhibition at 500 mg/kg: 43%
[1]; 500 mg/kg s.c. single dose, conscious rats, within 1 hour, remained during first 3 hours
  inhibition at 500 mg/kg: > 90%
[2]; 100 mg/kg dose
  analgesic effect in writhing assay: significant analgesic effect
[2]; Mus musculus, sc, s.c. 15 minutes before acetylcholine, percentage of animals per group that writhed (all or none)
  ED50: 105 mg/kg
[3]
  effect on serum PGL activity: no effect
[4]
  effect on time to tail withdrawal: did not have any effect
[5]; 100 mg/kg dose
  analgesic effect in writhing assay: significant analgesic effect
[5]; 250 mg/kg s.c.
  inhibition of writhing: greater than 85%
[6]; Bradykinin 50 μg, PBA s.c. 1 hour before, measured 30 minutes after
  Inhibition (%): 25.6%
[6]; Bradykinin 50 μg, PBA s.c. 1 hour before, measured 30 minutes after, n = 8
  Hind Paw Volume (mL ± S.E.M.): 0.29 ± 0.04 mL
[6]; [10]
  inhibitory activity on edema produced by bradykinin: lacked significant inhibitory activity
[7]; Serotonin 20 μg, PBA s.c. 30 minutes before, measured 1 hour after
  Inhibition (%): 18.5%
[7]; Serotonin 20 μg, PBA s.c. 30 minutes before, measured 1 hour after, n = 8
  Hind Paw Volume (mL ± S.E.M.): 0.66 ± 0.03 mL
[7]; [10]
  inhibitory activity on edema produced by serotonin: lacked significant inhibitory activity
[8]; 75 mg/kg/hr for 1 week before carrageenan, each time period
  inhibition of carrageenan edema: significant inhibition
[8]; 100 mg/kg dose
  activity on carrageenan edema: did not show any activity
[8]; 100 mg/kg, administered 2 hours after induction of inflammation
  inhibition of hind paw swelling: only effective at hour 3
[8]; 250 mg/kg s.c. 30 minutes before carrageenan
  inhibition of hind paw edema: 43%
[8]; 250 mg/kg, administered 2 hours after induction, up to 6 hours post-phlogistic agent
  inhibition of hind paw swelling: significant inhibition of hind paw swelling
[8]; 500 mg/kg s.c. 30 minutes before carrageenan
  inhibition of hind paw edema: 67%
[8]; 500 mg/kg, administered 2 hours after induction, up to 6 hours post-phlogistic agent
  inhibition of hind paw swelling: significant inhibition of hind paw swelling
[8]; Carrageenan, PBA s.c. 30 minutes before, measured 2 hours after, P < .05
  Inhibition (%): 66.7^b %
[8]; Carrageenan, PBA s.c. 30 minutes before, measured 2 hours after, n = 8
  Hind Paw Volume (mL ± S.E.M.): 0.31 ± 0.07 mL
[8]; s.c. 30 minutes before carrageenan, at 2 and 3 hours post-administration
  dose dependence of inhibition of hind paw edema: dose-related inhibition
[9]
  SP levels in hind paw tissue compared to controls: significantly reduced
